This passage reports GI50 and TGI results from PubChem BioAssay (NCI).

Among the test systems are CAKI-1 renal; SK-MEL-28 melanoma; DU-145 prostate; U251 CNS; HCT-15 colon; SF-268 CNS; RPMI-8226 leukemia; SK-OV-3 ovarian.
Assay in all cases: inhibition of tumour cell growth, NCI panel, 48 h

Several values for one entry are separate records, joined by “and”; a condition that tells them apart may be missing. Equal values may be shown once.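 Assay format: 96-well plates, 48-hour exposure. Here, GI50 denotes the concentration required for 50% inhibition of growth. TGI marks complete inhibition of growth.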

With `CN(C)C/C=C/C(=O)Nc1cc2c(Nc3cccc(Cl)c3F)ncnc2cc1OCCOC(F)F`, the GI50 with CAKI-1 renal is < 0.01 µM; in the assay on SK-MEL-28 melanoma it was 3.11 µM; with DU-145 prostate, 0.317 µM; with U251 CNS, 2.39 µM; with HCT-15 colon it was 1.08 µM; with SF-268 CNS it was 1.44 µM. Also, the GI50 was 1.53 µM with RPMI-8226 leukemia and < 0.01 µM in the assay with SK-OV-3 ovarian. Besides, the TGI is 1.65 µM in the assay on CAKI-1 renal; 15.3 µM in the assay on SK-MEL-28 melanoma; 10.7 µM in the assay with DU-145 prostate; 12.1 µM in the assay on U251 CNS; 9.76 µM with SF-268 CNS; 5.27 µM in the assay with RPMI-8226 leukemia. In addition, in the assay with SK-OV-3 ovarian, the TGI turned out to be 0.275 µM.
`COC(=O)[C@H](CCCCNC(=O)OCc1ccccc1)NC(=O)[C@@H](NC(=O)Nc1cc(C(F)(F)F)cc(C(F)(F)F)c1)C(C)C`: the GI50 in the assay with CAKI-1 renal, with SK-MEL-28 melanoma, in the assay with DU-145 prostate, with U251 CNS, in the assay with HCT-15 colon and with SF-268 CNS was > 10 µM throughout. The GI50 with RPMI-8226 leukemia and with SK-OV-3 ovarian was > 10 µM each time. The TGI with CAKI-1 renal, with SK-MEL-28 melanoma, with DU-145 prostate, in the assay with U251 CNS, with HCT-15 colon and in the assay with SF-268 CNS was > 10 µM in each case. The TGI in the assay with RPMI-8226 leukemia and in the assay with SK-OV-3 ovarian was > 10 µM throughout.
`N/C(=N/S(=O)(=O)c1cc(C(=O)Nc2ccc(F)cc2)c(Cl)cc1SCc1ccccc1)Nc1ccccc1O`: the GI50 with CAKI-1 renal is 23.8 µM; in the assay with SK-MEL-28 melanoma it was 2.14 µM; in the assay with DU-145 prostate, 1.83 µM; in the assay on U251 CNS it was 1.78 µM; in the assay on HCT-15 colon it was 37.1 µM; in the assay with SF-268 CNS, 2.12 µM. The results for the GI50 with RPMI-8226 leukemia and in the assay on SK-OV-3 ovarian were 2.61 µM and 2.06 µM, respectively. The TGI is > 100 µM in the assay with CAKI-1 renal; 4.33 µM in the assay on SK-MEL-28 melanoma; 3.56 µM in the assay on DU-145 prostate; 3.22 µM in the assay on U251 CNS; > 100 µM in the assay with HCT-15 colon; 5.69 µM with SF-268 CNS. Also, the TGI is 6.1 µM in the assay on RPMI-8226 leukemia and 4.2 µM with SK-OV-3 ovarian.
Take `CC[Si](CC)(CC)OC1[C@@H](O[Si](CC)(CC)CC)[C@@H](CNC(=O)NC)O[C@H]1n1cnc2c(NC(=O)Nc3ccccc3)ncnc21` (some centres undefined): the GI50 in the assay on CAKI-1 renal is 2.76 µM; with SK-MEL-28 melanoma, 4.93 µM; in the assay on DU-145 prostate, 4.41 µM; with U251 CNS it was 4.06 µM; in the assay on HCT-15 colon it was 3.78 µM; with SF-268 CNS, 4.67 µM. Moreover, the GI50 was 2.13 µM with RPMI-8226 leukemia and 14.7 µM in the assay with SK-OV-3 ovarian. Further, the TGI in the assay on CAKI-1 renal was 12.2 µM; in the assay with SK-MEL-28 melanoma it was > 100 µM; with DU-145 prostate, > 100 µM; in the assay on U251 CNS, > 100 µM; in the assay on HCT-15 colon, > 100 µM; in the assay with SF-268 CNS it was > 100 µM. The TGI in the assay with RPMI-8226 leukemia was 5.33 µM; with SK-OV-3 ovarian it was > 100 µM.
As to `C=C1C(O)C2CC(C)(C)C(=O)C2=C(CC(C)C)C12CC2` (centres undefined), the GI50 in the assay with CAKI-1 renal, with SK-MEL-28 melanoma, in the assay with DU-145 prostate, in the assay on U251 CNS, in the assay on HCT-15 colon and in the assay on SF-268 CNS was > 100 µM throughout. The results for the GI50 with RPMI-8226 leukemia and in the assay with SK-OV-3 ovarian were 36 µM and > 100 µM, respectively. The TGI in the assay with CAKI-1 renal, in the assay on SK-MEL-28 melanoma, with DU-145 prostate, in the assay with U251 CNS, in the assay with HCT-15 colon and with SF-268 CNS was > 100 µM throughout. Besides, the TGI in the assay with RPMI-8226 leukemia and in the assay with SK-OV-3 ovarian was > 100 µM in each case.
As for `COc1cc(/C=C/c2ccnc3ccccc23)cc(OC)c1OC`, the GI50 in the assay on CAKI-1 renal is 1.89 µM; in the assay with SK-MEL-28 melanoma, 4.06 µM; in the assay on DU-145 prostate it was 3.06 µM; in the assay on U251 CNS it was 3.01 µM; in the assay on HCT-15 colon, 1.92 µM; in the assay on RPMI-8226 leukemia, 6.55 µM. Further, the GI50 in the assay on SK-OV-3 ovarian was 5.68 µM. Besides, the TGI in the assay on CAKI-1 renal is 20.8 µM and 26.8 µM; in the assay on SK-MEL-28 melanoma, 37.2 µM and > 100 µM; with DU-145 prostate, 30.3 µM and 20.7 µM; in the assay on U251 CNS it was 44.1 µM and 22.8 µM; with HCT-15 colon, > 100 µM and 70.1 µM; in the assay on SF-268 CNS, 19.8 µM and 47.6 µM. The TGI with SK-OV-3 ovarian was 46.4 µM and 40.3 µM.
As for `CCC(C)C(=O)OC1CCC=C2C=CC(C)C(CCC3CC(O)CC(=O)O3)C21` (centres undefined), the TGI was 29 µM with CAKI-1 renal; > 100 µM in the assay on SK-MEL-28 melanoma; > 100 µM in the assay with DU-145 prostate; > 100 µM in the assay on U251 CNS; > 100 µM in the assay on HCT-15 colon; > 100 µM in the assay on SF-268 CNS. The TGI with RPMI-8226 leukemia and in the assay with SK-OV-3 ovarian was > 100 µM in each case.
On to `COc1ccc2nc3ccccc3c(NCc3ccccc3)c2c1`, for which the GI50 in the assay with CAKI-1 renal is 1.94 µM; in the assay with SK-MEL-28 melanoma it was 1.75 µM; with DU-145 prostate, 3.18 µM; in the assay with U251 CNS, 2.71 µM; in the assay on HCT-15 colon it was 1.83 µM; in the assay with SF-268 CNS, 2.94 µM. The GI50 with RPMI-8226 leukemia is 1.93 µM; in the assay on SK-OV-3 ovarian, 2.45 µM. The TGI in the assay with CAKI-1 renal was found to be 6.82 µM; in the assay on SK-MEL-28 melanoma it was 3.57 µM; in the assay with DU-145 prostate it was 10.3 µM; with U251 CNS, 8.34 µM; in the assay on HCT-15 colon, 4.46 µM; in the assay with SF-268 CNS, 9.71 µM. In addition, the TGI came out at 4.49 µM in the assay with RPMI-8226 leukemia and 9.08 µM with SK-OV-3 ovarian.
Regarding `O=C(Nc1ccc(Cl)cc1)N1CCN(c2ccc3nncn3n2)CC1`, the GI50 in the assay on CAKI-1 renal is 30.3 µM; in the assay with SK-MEL-28 melanoma it was > 100 µM; in the assay with DU-145 prostate it was 49.8 µM; in the assay on U251 CNS, > 100 µM; with HCT-15 colon it was 30.2 µM; with SF-268 CNS it was > 100 µM. Further, the values for the GI50 with RPMI-8226 leukemia and in the assay on SK-OV-3 ovarian were 29.7 µM and > 100 µM, respectively. Moreover, the TGI in the assay on CAKI-1 renal, with SK-MEL-28 melanoma, in the assay with DU-145 prostate, in the assay on U251 CNS, in the assay with HCT-15 colon and in the assay on SF-268 CNS was > 100 µM in each case. Also, the TGI with RPMI-8226 leukemia and with SK-OV-3 ovarian was > 100 µM throughout.
Regarding `CCN(CC)CCCNc1cc(OC)c(OC)c2cccnc12`, the GI50 is 2.15 µM in the assay with CAKI-1 renal; 15.7 µM with SK-MEL-28 melanoma; 15.9 µM in the assay with DU-145 prostate; 3.71 µM with U251 CNS; 14.1 µM in the assay on HCT-15 colon; 14.4 µM in the assay on SF-268 CNS. In addition, the results for the GI50 with RPMI-8226 leukemia and in the assay on SK-OV-3 ovarian were 11.2 µM and 9.37 µM, respectively. Besides, the TGI in the assay with CAKI-1 renal was found to be 29.7 µM; in the assay on SK-MEL-28 melanoma it was 32.9 µM; in the assay on DU-145 prostate, 33.4 µM; in the assay with U251 CNS, 21 µM; in the assay on HCT-15 colon, 49.8 µM; in the assay with SF-268 CNS it was 46.3 µM. The TGI amounted to 40.7 µM with RPMI-8226 leukemia and 44.9 µM in the assay on SK-OV-3 ovarian.
